The source of these data is patent publication US20210308101A1, “METHODS OF TREATING FIBROMYALGIA” (Aptinyx Inc., priority 2019, published 2021).

“Also recorded” adds a separate entry of the source.

Data set [1] concerns subjects with fibromyalgia. Briefly: Brief Pain Inventory - Short Form (BPI-SF). The class given is in vivo, human. Particulars: not statistically significant. An excerpt:
As used herein, “Brief Pain Inventory” (BPI)—Short Form is a brief, simple patient-completed numeric rating scale that assesses the severity of pain (Severity scale), its impact on daily functioning (Interference scale), and other aspects of pain (e.g., location of pain, relief from medications). A short form version of the BPI, including the 4-item pain Severity scale (Worst Pain, Least Pain, Average Pain, and Pain Now) and the 7-item pain Interference scale (General Activity, Mood, Walking Ability, Normal Work, Relations with Other People, Sleep, Enjoyment of Life) were the main BPI-Short Form analyses. […] If at least 3 of the 4 Severity items have a reported score, then the Pain Severity Index was the calculated mean. Otherwise, the Pain Severity Index was set to missing. […] Otherwise, the Pain Interference Index was set to missing. […] The Pain Severity Index and the Pain Interference Index were referred to as composite scores.
There may be dates in which worst pain in the last 24 hours has scores that are less than the least pain in the last 24 hours and/or right now pain scores. Also, the least pain in the last 24 hours scores may be greater than the worst pain in the last 24 hours and/or right now pain scores. This may be due to the collection of the data that cannot be changed due to the subject's confusion of the three scores. The Pain Severity Index score equally distributes all these three scores and the average pain score. Therefore, the Pain Severity Index score is not impacted by any of these scores being mixed up. As a result, the scores were analyzed based on the values collected.
The 2 composite scores took on values ranging from 0 to 10 and were rounded off by one number after the decimal point. A total pain score for BPI-Short Form was not calculated. The BPI-Short Form assessment was collected and analyzed at visits Screening, Day 1, Week 2, Week 4, Week 6, and Follow-up (Week 7). The observed composite scores, changes from baseline, and changes from treatment periods were summarized using descriptive statistics. Additionally, the treatment group comparisons were analyzed using the paired t-test and nonparametric Wilcoxon signed-rank test. All BPI-Short Form data collected and the calculated composite scores at each visit were presented in a subject listing. […] Have you had pain other than these everyday kinds of pain today?” is a categorical response (yes/no). […] This question was included in the descriptive statistics, but was not analyzed using any paired t-test and nonparametric Wilcoxon signed-rank test comparisons. • BPI-Short Form question 2, “On the diagram, shade in the areas where you feel pain. […]

The test system of data set [2] is dorsal anterior cingulate cortex Glx. Briefly: 1H-MRS Glx levels, dorsal anterior cingulate cortex. It is filed as in vivo, human. From the text: As used herein, “^1H-MRS” is Magnetic Resonance Spectroscopy (1H-MRS) or Proton Magnetic Resonance Spectroscopy. Proton magnetic resonance spectroscopy is a noninvasive imaging technique that allows in vivo determination of biochemical parameters within brain tissue. Proton magnetic resonance spectroscopy data were used to collect brain neurotransmitter levels of Glu and combined glutamate+glutamine metabolites (Glx). This method provides metrics amenable to longitudinal studies such as those proposed here. High-resolution anatomical scans can isolate identical brain structures within individuals over time, thus minimizing error that otherwise would occur because of slight differences in voxel location from 1 evaluation to the next. Previous ^1H-MRS studies have utilized this approach to examine changes in the levels of CNS metabolites in test-retest studies of drug effects. […]
Raw data from each single-voxel spectroscopy sequence underwent manual post-processing using ^1H-MRS software (LCModel; Stephen Provencher, Oakville, Ontario, Canada). […] Glx values were calculated as an absolute concentration using the water signal for normalization or as a ratio to creatine. […]
The analysis visit comparisons stated were analyzed using paired t-tests and/or nonparametric Wilcoxon signed-rank tests of Glx levels at each voxel independently in SPSS. […]

The subject of data set [3] is posterior insula Glx. Briefly: 1H-MRS Glx levels, posterior insula (pre and post evoked cuff pain). The class given is in vivo, human. Particulars: for pain-evoked increase in posterior insula Glx at the visit: p>0.60; for posterior insula pain-related Glx/tCr level increases: 11 patients; for posterior insula evoked pain Glx levels compared to the placebo visit: p<0.10, FIG. 15. From the text:
As used herein, “^1H-MRS” is Magnetic Resonance Spectroscopy (1H-MRS) or Proton Magnetic Resonance Spectroscopy. Proton magnetic resonance spectroscopy is a noninvasive imaging technique that allows in vivo determination of biochemical parameters within brain tissue. Proton magnetic resonance spectroscopy data were used to collect brain neurotransmitter levels of Glu and combined glutamate+glutamine metabolites (Glx). This method provides metrics amenable to longitudinal studies such as those proposed here. High-resolution anatomical scans can isolate identical brain structures within individuals over time, thus minimizing error that otherwise would occur because of slight differences in voxel location from 1 evaluation to the next. Previous ^1H-MRS studies have utilized this approach to examine changes in the levels of CNS metabolites in test-retest studies of drug effects. This study expanded the investigation to a variety of regions throughout the brain including: • Right anterior insula • Right posterior insula (This region was acquired twice: once prior to and once following evoked cuff pain. All other voxels were acquired once.) • Perigenual/rostral anterior cingulate cortex (midline) • Dorsal/anterior cingulate cortex (midline) • Precuneus (midline) • Medial prefrontal cortex • Thalamus (optional if time permitted)
Proton magnetic resonance spectroscopy data were collected using the same scanners used for fMRI. Voxels of interest were placed in each of the aforementioned brain regions to obtain levels of Glu and Glx.
Raw data from each single-voxel spectroscopy sequence underwent manual post-processing using ^1H-MRS software (LCModel; Stephen Provencher, Oakville, Ontario, Canada). LCModel uses a linear combination of individual spectra obtained from pure molecular species to fit the experimental spectra. Glx values were calculated as an absolute concentration using the water signal for normalization or as a ratio to creatine. Correction for cerebral spinal fluid (CSF) volume, which can dilute ^1H-MRS-derived Glx values, was also performed. For this we used Voxel Based Morphometry, a toolbox that operates within SPM. Metabolite concentrations were excluded if the Cramér-Rao bounds were greater than 20%.
The analysis visit comparisons stated were analyzed using paired t-tests and/or nonparametric Wilcoxon signed-rank tests of Glx levels at each voxel independently in SPSS. The primary analyses were comparisons between posterior insula and anterior cingulate cortex Glx levels following placebo and NYX-2925 (either 20 or 200 mg) administration.

The test system of data set [4] is subjects with fibromyalgia. Nature of the data set: Safety evaluation in the fibromyalgia study. The class given is in vivo, human. Particulars: 20 mg then 200 mg PO QD, 2 weeks each. An excerpt:
Adverse events (AEs), vital signs, electrocardiograms, physical examinations, Columbia Suicide Rating Scales, and clinical laboratory samples were collected throughout the study.
• Adverse events • Vital sign measurements • Clinical laboratory test results • Electrocardiogram results • Physical examination findings • Columbia-Suicide Severity Rating Scale (C-SSRS)

Data set [5] relates to NMDAR. Nature of the data set: NMDAR modulation (description). Particulars: low concentrations of endogenous agonist (glycine or D-serine), in the presence of glutamate.
Setting [6] is: Week 2 (placebo) to Week 4 (NYX-2925 20 mg).
Where [7] appears, read: Week 2 (placebo) to Week 6 (NYX-2925 200 mg).

On to `CC(C)C(=O)N1CCC[C@]12CN([C@H](C(N)=O)[C@@H](C)O)C2=O` [NYX-2925, (2S, 3R)-3-hydroxy-2-((R)-5-isobutyryl-1-oxo-2,5-diazaspiro[3.4]octan-2-yl)butanamide], for which the “BPI-SF Pain Interference Index score, mean change” value was −0.04 in data set [1] (setting [6]) and −0.66 in data set [1] (setting [7]). For the same compound, the “BPI-SF Pain Severity Index score, mean change” value in data set [1] (setting [6]) is listed as −0.22; in data set [1] (setting [7]), −0.27. The “dACC resting Glx (concentrations and ratios to creatine)” value in data set [2] (NYX-2925 20 mg vs placebo, p<0.05) is “statistically significant reductions of Glx levels; also recorded: decreased resting Glx”. The “dACC mean Glx levels” value in data set [2] (NYX-2925 200 mg vs placebo) is “No significant decrease; also recorded: No effect”. For the same compound, the “resting posterior insula Glx levels following evoked pain” value in data set [3] (FIG. 5: 20 mg vs placebo, 19 patients, p=0.032) is reported as “significantly reduce resting posterior insula Glx levels”. In addition, the “pain-evoked increase in posterior insula Glx at the visit” value in data set [3] (NYX-2925 20 mg visit) and in data set [3] (NYX-2925 200 mg visit) was “not significant” each time. The “posterior insula pain-related Glx/tCr level increases” value is “reduction in pain related Glx/tCr level increases” in data set [3] (NYX-2925 20 mg vs placebo, FIG. 3A, p<0.05) and “reduction in pain related Glx/tCr level increases” in data set [3] (NYX-2925 200 mg vs placebo, FIG. 3B, p<0.05). For the same compound, the “posterior insula evoked pain Glx levels compared to the placebo visit” value is “trend for NYX-2925 20 mg and 200 mg to reduce evoked pain Glx levels” in data set [3] (NYX-2925 20 mg); “trend for NYX-2925 20 mg and 200 mg to reduce evoked pain Glx levels” in data set [3] (NYX-2925 200 mg). Also, the “posterior insula Glx levels post-pain (ratios to creatine only)” value in data set [3] (NYX-2925 200 mg compared to placebo, p<0.05) is reported as “significant decrease in Glx levels”. Moreover, the “discontinuations due to treatment-emergent adverse events (TEAE)” value in data set [4] is reported as “no discontinuations”. In data set [4], the safety and tolerability result was “safe and well tolerated”. For the same compound, the serious adverse events entry in data set [4] is “No serious adverse events”. The “activity at the NMDAR” value in data set [5] was “partially activates the NMDAR”.
